Test results as given in US20240398768A1, “METHODS OF TREATING SOLID TUMOR USING HETEROAROMATIC MACROCYCLIC ETHER COMPOUNDS” (Nuvalent, Inc., priority 2021, published 2024).

Columns and labels:
CYP2D6 = CYP2D6 (Homo sapiens, UniProt P10635); assay: CYP inhibition; assay type: in vitro ADME
CYP2C9 = CYP2C9 (Homo sapiens, UniProt P11712); assay: CYP inhibition; assay type: in vitro ADME
[1] = Phase 1/2 clinical study: safety and tolerability; assay type: in vivo
Method: The Phase 1 portion of the study employ a BOIN design with 3+3 run-in to evaluate dose escalation. […] The safety profile is assessed based on physical examinations; ECOG PS; changes from baseline in laboratory parameters, ECGs, vital signs, and ophthalmic examination (baseline only and as clinically indicated); and the reporting of AEs. The DLT Observation Period is defined from first dose on day 1 of cycle 1 (C1D1) through to the end of the first cycle (28-day cycle period).
Each cycle of treatment is 28 days.

[2] = twenty pts, 25-100 mg once daily

Chain of CYP2C9 (P11712 whole entry): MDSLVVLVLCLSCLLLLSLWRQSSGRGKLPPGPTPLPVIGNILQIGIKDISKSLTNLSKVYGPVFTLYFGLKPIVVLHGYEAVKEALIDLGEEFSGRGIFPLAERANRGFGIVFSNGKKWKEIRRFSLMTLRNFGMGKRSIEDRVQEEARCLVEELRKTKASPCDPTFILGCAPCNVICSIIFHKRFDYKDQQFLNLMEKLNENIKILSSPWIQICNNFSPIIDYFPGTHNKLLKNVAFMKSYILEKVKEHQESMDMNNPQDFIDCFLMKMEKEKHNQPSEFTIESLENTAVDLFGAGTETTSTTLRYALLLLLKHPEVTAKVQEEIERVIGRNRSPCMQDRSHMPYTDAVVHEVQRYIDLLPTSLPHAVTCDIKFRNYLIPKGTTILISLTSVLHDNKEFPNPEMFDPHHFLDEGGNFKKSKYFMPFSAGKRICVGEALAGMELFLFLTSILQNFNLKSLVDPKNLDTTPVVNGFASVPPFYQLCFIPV
Chain of CYP2D6 (P10635 whole entry): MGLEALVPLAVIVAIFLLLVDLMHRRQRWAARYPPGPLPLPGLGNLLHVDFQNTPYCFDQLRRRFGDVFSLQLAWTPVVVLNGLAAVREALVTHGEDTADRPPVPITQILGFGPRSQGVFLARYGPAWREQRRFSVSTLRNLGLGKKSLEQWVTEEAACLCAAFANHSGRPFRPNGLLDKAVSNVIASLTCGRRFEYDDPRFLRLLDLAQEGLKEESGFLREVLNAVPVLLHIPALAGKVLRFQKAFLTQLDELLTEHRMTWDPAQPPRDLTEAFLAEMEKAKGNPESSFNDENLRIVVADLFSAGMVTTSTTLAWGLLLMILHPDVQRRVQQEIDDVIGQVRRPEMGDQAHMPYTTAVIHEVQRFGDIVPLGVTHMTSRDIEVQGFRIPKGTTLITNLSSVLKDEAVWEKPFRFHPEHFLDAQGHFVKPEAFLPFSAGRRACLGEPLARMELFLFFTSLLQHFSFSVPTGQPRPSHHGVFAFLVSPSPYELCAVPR

For `CCn1ncc2c1-c1cnc(N)c(c1)O[C@H](C)c1cc(F)ccc1-c1nn(C)nc1C2` [Compound 1, (19R)-3-ethyl-16-fluoro-10,19-dimethyl-20-oxa-3,4,9,10,11,23-hexaazapentacyclo [19.3.1.0^2,^6.0^8,^12.0^13,^18]pentacosa-1 (24),2 (6),4,8,11,13,15,17,21 (25),22-decaen-22-amine], the IC50 (CYP2D6) was over 100 µM, the IC50 (CYP2C9) was 70.3 µM and the “treatment discontinuation due to toxicity” value ([1]; data as of Sep. 13, 2022) was “No treatment was discontinued due to toxicity”. The “AEs leading to dose reduction or discontinuation” value ([1]; data of Sep. 13, 2022) was “no AEs leading to dose reduction or discontinuation”, the DLTs ([1]; data of Sep. 13, 2022) was “no observed DLTs” and the “treatment-related SAEs” value ([1]; data of Sep. 13, 2022) was “no treatment-related SAEs”. The treatment-related dizziness ([1]; data of Sep. 13, 2022) was “no treatment-related dizziness”, the “tolerability (dizziness, orthostasis, paresthesia)” value ([1]; patient, 25 mg daily) was “well tolerated” and the neurological toxicities ([1]; patient, 50 mg daily) was “No neurological toxicities”. The neurological toxicities ([1]; patient, 25 then 75 mg daily) was “without neurological toxicities”, the “DLTs, dose reductions, drug-related treatment discontinuations” value [1, 2] was “No DLTs, dose reductions, or drug-related treatment discontinuations” and the “grade of treatment-related adverse events (TRAEs)” value [1, 2] was “grade 1”. The tolerability ([1]; up to 125 mg daily) was “well-tolerated”.
